Data: ChEMBL document CHEMBL1155868, “N-Benzyl-N-(pyrrolidin-3-yl)carboxamides as a new class of selective dual serotonin/noradrenaline reuptake inhibitors” (Bioorg Med Chem Lett, 2008)

How the values were obtained:
[1] = target: Sodium-dependent serotonin transporter (Homo sapiens, UniProt P31645); experiment: Inhibition of [3H]5HT reuptake at human serotonin transporter expressed in HEK293 cells by scintillation counting; type: cell-based
[2] = target: Sodium-dependent noradrenaline transporter (Homo sapiens, UniProt P23975)
Description: Inhibition of [3H]NA reuptake in human noradrenaline transporter expressed in HEK293 cells by scintillation counting

[3] = target: Sodium-dependent dopamine transporter (Homo sapiens, UniProt Q01959); experiment: Inhibition of [3H]DA reuptake at human dopamine transporter expressed in HEK293 cells by scintillation counting; type: cell-based
[4] = Distribution coefficient, log D at pH 7.4; type: physicochemical; conditions: octanol/water
[5] = Dissociation constant, pKa of the compound; type: physicochemical
[6] = Metabolic stability assessed as half life in human liver microsomes; type: ADME, Microsome
Cytochrome P450 2D6 = Cytochrome P450 2D6 (Homo sapiens, UniProt P10635); experiment: Inhibition of CYP2D6; type: ADME
[7] = target: Voltage-gated inwardly rectifying potassium channel KCNH2 (Homo sapiens, UniProt Q12809); experiment: Inhibition of human ERG potassium channel
Cytochrome P450 1A2 = target: T1, Cytochrome P450 1A2 (Homo sapiens, UniProt P05177); experiment: Inhibition of CYP1A2; type: ADME
T1 sequence (P05177 whole entry): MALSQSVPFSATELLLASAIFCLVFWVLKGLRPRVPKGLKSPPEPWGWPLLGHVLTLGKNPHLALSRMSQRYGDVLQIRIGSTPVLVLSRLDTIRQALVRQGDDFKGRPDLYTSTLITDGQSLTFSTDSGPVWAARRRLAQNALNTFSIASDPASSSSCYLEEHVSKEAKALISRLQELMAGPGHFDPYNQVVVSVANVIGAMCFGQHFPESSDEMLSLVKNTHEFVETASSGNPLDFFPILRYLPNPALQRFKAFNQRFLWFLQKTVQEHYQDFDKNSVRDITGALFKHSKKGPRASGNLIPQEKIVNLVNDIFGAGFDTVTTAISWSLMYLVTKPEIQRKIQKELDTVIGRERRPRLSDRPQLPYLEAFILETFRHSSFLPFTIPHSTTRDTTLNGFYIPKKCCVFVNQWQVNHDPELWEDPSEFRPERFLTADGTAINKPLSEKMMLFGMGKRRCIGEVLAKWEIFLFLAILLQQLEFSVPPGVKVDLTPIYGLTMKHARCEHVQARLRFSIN

Cytochrome P450 2C9 = Cytochrome P450 2C9 (Homo sapiens, UniProt P11712); experiment: Inhibition of CYP2C9; type: ADME
Cytochrome P450 2C19 = Cytochrome P450 2C19 (Homo sapiens, UniProt P33261); experiment: Inhibition of CYP2C19; type: ADME
Cytochrome P450 3A4 = Cytochrome P450 3A4 (Homo sapiens, UniProt P08684); experiment: Inhibition of CYP3A4; type: ADME
[8] = Half life in dog at 0.01 mg/kg, iv; type: ADME, organism-based, Canis lupus familiaris; design: dose 0.01 mg/kg, route intravenous; conditions: in vivo
[9] = Clearance in dog at 0.01 mg/kg, iv; type: ADME, organism-based, Canis lupus familiaris; design: dose 0.01 mg/kg, route intravenous; conditions: in vivo
[10] = Volume of distribution in dog at 0.01 mg/kg, iv; type: ADME, organism-based, Canis lupus familiaris; design: dose 0.01 mg/kg, route intravenous; conditions: in vivo
[11] = Half life in dog at 0.013 mg/kg, po; type: ADME, organism-based, Canis lupus familiaris; design: dose 0.013 mg/kg, route oral; conditions: in vivo
[12] = Bioavailability in dog at 0.013 mg/kg, po; type: ADME, organism-based, Canis lupus familiaris; conditions: in vivo
[13] = Metabolic stability assessed as half life in dog liver microsomes; type: ADME, Canis lupus familiaris, Microsome
in vitro = conditions: human, hepatocytes
Description: Intrinsic clearance in human hepatocytes assessed per million cells

Chain of Sodium-dependent dopamine transporter (Q01959 whole entry): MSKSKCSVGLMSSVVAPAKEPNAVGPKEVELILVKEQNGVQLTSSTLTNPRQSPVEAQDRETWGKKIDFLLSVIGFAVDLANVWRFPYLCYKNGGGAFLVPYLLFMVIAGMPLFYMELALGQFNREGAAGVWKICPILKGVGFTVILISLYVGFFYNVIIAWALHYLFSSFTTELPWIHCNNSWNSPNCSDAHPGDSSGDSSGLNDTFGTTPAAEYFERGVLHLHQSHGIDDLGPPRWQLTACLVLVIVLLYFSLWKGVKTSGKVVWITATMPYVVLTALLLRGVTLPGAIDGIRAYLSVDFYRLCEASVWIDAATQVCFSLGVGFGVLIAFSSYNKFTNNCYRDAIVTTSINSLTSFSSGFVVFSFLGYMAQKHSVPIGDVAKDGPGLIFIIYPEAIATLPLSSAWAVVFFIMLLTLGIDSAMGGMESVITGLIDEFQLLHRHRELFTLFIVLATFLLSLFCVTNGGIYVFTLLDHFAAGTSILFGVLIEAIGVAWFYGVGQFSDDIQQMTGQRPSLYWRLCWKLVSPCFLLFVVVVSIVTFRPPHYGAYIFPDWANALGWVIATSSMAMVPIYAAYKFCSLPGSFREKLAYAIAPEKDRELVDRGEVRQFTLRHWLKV
Chain of Voltage-gated inwardly rectifying potassium channel KCNH2 (Q12809 whole entry): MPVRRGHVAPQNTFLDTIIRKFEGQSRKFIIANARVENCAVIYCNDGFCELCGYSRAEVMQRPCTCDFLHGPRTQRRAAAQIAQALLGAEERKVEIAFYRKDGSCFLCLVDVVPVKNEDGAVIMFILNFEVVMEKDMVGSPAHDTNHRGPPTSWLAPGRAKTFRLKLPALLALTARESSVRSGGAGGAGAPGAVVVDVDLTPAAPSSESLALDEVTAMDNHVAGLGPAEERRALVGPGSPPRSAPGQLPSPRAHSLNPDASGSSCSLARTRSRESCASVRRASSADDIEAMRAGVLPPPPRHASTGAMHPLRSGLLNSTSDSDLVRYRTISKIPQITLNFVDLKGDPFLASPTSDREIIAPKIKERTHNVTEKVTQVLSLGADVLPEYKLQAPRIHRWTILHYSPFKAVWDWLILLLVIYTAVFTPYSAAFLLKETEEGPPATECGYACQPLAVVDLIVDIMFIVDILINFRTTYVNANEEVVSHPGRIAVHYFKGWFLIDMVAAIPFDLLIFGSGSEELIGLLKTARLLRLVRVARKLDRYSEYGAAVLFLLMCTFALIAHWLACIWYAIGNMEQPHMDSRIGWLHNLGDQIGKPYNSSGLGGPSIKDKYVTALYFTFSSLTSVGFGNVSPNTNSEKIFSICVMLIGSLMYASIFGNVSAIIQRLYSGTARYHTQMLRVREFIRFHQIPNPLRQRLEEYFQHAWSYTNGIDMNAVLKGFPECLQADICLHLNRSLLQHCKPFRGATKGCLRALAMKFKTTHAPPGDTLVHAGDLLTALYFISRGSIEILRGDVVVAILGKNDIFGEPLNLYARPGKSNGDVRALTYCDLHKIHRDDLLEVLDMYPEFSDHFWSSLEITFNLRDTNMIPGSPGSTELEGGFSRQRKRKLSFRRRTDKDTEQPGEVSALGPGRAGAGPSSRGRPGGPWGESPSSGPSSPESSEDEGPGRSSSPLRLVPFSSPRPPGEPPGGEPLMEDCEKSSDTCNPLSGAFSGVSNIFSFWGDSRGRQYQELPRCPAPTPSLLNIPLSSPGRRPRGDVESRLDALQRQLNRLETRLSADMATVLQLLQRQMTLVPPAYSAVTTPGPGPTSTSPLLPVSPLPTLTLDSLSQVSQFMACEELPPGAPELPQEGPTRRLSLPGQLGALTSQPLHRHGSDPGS
Chain of Sodium-dependent serotonin transporter (P31645 whole entry): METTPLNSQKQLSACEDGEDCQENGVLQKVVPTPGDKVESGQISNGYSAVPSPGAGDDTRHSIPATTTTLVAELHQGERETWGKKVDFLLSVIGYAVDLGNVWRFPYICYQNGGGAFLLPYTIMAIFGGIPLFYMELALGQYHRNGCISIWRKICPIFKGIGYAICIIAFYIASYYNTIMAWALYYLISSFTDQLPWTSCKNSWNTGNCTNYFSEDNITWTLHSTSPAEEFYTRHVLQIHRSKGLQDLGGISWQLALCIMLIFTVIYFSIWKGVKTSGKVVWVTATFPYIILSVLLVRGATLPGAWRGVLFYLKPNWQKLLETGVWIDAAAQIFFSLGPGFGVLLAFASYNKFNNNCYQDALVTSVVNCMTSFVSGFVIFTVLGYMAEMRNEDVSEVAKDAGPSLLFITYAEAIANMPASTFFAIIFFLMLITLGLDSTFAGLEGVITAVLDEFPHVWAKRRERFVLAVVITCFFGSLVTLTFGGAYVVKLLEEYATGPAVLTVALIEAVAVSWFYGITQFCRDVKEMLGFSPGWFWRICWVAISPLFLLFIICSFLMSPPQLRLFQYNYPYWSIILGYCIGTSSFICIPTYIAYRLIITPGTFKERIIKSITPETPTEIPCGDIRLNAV
Chain of Sodium-dependent noradrenaline transporter (P23975 whole entry): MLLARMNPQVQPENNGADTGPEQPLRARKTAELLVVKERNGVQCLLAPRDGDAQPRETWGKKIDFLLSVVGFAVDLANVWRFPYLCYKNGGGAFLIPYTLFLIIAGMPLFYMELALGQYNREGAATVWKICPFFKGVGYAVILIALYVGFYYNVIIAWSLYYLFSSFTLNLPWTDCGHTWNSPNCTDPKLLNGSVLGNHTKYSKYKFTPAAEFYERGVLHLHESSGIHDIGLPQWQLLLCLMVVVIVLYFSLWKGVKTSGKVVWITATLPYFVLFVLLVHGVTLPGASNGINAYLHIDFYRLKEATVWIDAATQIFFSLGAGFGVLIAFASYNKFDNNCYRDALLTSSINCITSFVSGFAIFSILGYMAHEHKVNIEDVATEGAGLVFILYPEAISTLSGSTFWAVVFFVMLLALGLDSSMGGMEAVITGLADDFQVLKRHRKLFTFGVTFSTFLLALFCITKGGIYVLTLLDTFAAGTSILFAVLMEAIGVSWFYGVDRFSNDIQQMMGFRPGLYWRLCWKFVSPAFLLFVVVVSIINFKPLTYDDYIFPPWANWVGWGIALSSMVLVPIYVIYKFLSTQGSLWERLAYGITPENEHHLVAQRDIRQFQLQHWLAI
Chain of Cytochrome P450 2D6 (P10635 whole entry): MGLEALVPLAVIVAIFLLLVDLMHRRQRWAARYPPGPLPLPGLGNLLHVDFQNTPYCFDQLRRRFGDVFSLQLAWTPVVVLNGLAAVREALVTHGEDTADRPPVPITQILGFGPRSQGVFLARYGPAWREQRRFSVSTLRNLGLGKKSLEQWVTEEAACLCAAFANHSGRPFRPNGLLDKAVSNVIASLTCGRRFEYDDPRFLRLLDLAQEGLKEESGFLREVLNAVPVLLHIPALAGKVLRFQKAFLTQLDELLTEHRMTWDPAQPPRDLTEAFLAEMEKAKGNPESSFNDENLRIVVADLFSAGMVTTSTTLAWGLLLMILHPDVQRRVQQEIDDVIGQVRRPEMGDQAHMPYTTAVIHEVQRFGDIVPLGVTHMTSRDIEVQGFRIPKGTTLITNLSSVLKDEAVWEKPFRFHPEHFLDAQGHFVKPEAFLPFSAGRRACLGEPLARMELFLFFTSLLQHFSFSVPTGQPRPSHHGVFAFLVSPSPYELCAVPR
Chain of Cytochrome P450 2C9 (P11712 whole entry): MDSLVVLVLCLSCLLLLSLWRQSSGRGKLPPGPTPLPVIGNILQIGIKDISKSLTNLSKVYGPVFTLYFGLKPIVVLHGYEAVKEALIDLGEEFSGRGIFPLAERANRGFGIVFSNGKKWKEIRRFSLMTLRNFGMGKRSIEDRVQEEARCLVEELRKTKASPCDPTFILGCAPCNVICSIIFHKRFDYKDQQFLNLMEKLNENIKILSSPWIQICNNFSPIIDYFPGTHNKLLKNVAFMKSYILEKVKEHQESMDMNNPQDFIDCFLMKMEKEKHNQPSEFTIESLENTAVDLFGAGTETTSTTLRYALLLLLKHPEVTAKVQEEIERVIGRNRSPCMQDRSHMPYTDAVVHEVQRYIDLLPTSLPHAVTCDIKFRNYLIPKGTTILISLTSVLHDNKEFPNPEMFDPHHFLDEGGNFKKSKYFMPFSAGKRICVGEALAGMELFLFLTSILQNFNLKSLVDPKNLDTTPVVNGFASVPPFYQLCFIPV
Chain of Cytochrome P450 3A4 (P08684 whole entry): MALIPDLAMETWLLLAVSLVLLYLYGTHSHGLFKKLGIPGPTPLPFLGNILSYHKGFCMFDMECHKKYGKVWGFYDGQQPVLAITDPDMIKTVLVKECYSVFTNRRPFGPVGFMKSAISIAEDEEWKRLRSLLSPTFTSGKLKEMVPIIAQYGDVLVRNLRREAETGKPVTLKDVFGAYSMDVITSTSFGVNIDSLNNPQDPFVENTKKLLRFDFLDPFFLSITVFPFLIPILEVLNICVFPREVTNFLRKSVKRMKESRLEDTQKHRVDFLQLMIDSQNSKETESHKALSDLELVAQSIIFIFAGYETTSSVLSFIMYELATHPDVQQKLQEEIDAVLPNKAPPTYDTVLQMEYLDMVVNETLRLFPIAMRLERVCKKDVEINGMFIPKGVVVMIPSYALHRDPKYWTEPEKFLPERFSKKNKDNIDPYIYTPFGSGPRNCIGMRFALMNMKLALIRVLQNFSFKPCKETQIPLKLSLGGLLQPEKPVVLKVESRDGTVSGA
Chain of Cytochrome P450 2C19 (P33261 whole entry): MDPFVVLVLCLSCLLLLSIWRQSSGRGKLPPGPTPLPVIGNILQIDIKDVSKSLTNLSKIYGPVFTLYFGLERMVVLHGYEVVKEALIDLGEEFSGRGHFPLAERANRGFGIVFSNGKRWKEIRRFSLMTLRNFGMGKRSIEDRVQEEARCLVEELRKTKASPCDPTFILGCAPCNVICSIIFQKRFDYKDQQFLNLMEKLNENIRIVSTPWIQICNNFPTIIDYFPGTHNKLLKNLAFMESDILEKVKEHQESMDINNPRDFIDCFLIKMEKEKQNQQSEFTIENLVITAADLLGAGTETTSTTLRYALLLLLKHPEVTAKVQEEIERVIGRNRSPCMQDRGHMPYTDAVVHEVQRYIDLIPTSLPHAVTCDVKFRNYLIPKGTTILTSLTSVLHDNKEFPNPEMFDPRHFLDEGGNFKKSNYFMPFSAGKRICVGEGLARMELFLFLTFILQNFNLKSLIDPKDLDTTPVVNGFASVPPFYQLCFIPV

| IC50 [1] [nM] | IC50 [2] [nM] | Structure (SMILES) | further results |
| --- | --- | --- | --- |
| 26 | > 322 | CC(C)(C)C(=O)N(Cc1cccc(Cl)c1Cl)[C@H]1CCNC1 |  |
| 17 | 62 | CC(C)CC(=O)N(Cc1cccc(Cl)c1Cl)[C@H]1CCNC1 |  |
| 41 | 92 | CC(C)(C)C(=O)N(Cc1ccc(Cl)cc1Cl)[C@H]1CCNC1 |  |
| 5 |  | CC(C)C(=O)N(Cc1cccc(Cl)c1Cl)[C@@H]1CCNC1 | IC50 [3]: 1120 nM |
| 72 | 31 | CCCC(=O)N(Cc1ccc(Cl)cc1Cl)[C@H]1CCNC1 |  |
| 27 | 39 | CC(C)(C)CC(=O)N(Cc1ccc(Cl)cc1Cl)[C@H]1CCNC1 | IC50 [3]: 10200 nM |
| 93 | 31 | CC(C)CC(=O)N(Cc1ccc(Cl)cc1Cl)[C@H]1CCNC1 |  |
| 195 | 94 | O=C(c1ccccc1)N(Cc1ccc(Cl)cc1Cl)[C@H]1CCNC1 |  |
| > 400 | 14 | CC(C)C(=O)N(Cc1ccccc1-c1ccccc1)[C@H]1CCNC1 |  |
|  |  | CC(C)C(=O)N(Cc1cccc(Cl)c1Cl)[C@H]1CCNC1 | IC50 [3]: 1270 nM; logD [4]: 0.8; pKa [5]: 9.4; half-life [6]: > 2 h; IC50 (Cytochrome P450 2D6): 27100 nM; IC50 [7]: 24700 nM; Activity (Cytochrome P450 1A2): Not Active; Activity (Cytochrome P450 2C9): Not Active; Activity (Cytochrome P450 2C19): Not Active; IC50 (Cytochrome P450 3A4): 17900 nM; half-life [8]: 5.7 h; clearance [9]: 1.1 mL/min/kg; Vd [10]: 0.5 L/kg; half-life [11]: 5.7 h; bioavailability [12]: 91%; half-life [13]: 0.583 h; hepatocyte CLint (in vitro): 2.7 µL/min/1e6 cells |
| 5 | 16 | CC(C)C(=O)N(Cc1ccc(Cl)c(Cl)c1Cl)[C@H]1CCNC1 | IC50 [3]: 5870 nM; logD [4]: 1.3; half-life [6]: > 2 h; IC50 (Cytochrome P450 2D6): 17600 nM; IC50 [7]: > 6870 nM; hepatocyte CLint (in vitro): 8.8 µL/min/1e6 cells |
| 44 | 29 | CC(C)C(=O)N(Cc1cc(Cl)cc(Cl)c1Cl)[C@H]1CCNC1 | IC50 [3]: 21600 nM |
| 24 | > 400 | CC(C)C(=O)N(Cc1ccc(C(F)(F)F)cc1F)[C@H]1CCNC1 |  |
| 38 | 25 | O=C(C1CC1)N(Cc1ccc(Cl)cc1Cl)[C@H]1CCNC1 |  |
| 25 | 60 | CCC(=O)N(Cc1ccc(Cl)cc1Cl)[C@H]1CCNC1 |  |
| 13 | 28 | CC(C)C(=O)N(Cc1ccc(Cl)cc1Cl)[C@H]1CCNC1 | IC50 [3]: > 40000 nM; logD [4]: 0.8; half-life [6]: > 2 h; IC50 (Cytochrome P450 2D6): 21800 nM; IC50 [7]: 40200 nM; hepatocyte CLint (in vitro): 4.8 µL/min/1e6 cells |
| 33 | 70 | CCCCC(=O)N(Cc1ccc(Cl)cc1Cl)[C@H]1CCNC1 |  |
| 41 | 64 | O=C(C1CCC1)N(Cc1ccc(Cl)cc1Cl)[C@H]1CCNC1 |  |
| 123 | 300 | O=C(C1CCOCC1)N(Cc1cccc(Cl)c1Cl)[C@H]1CCNC1 |  |
| 91 | 114 | CC(C)C(=O)N(Cc1ccccc1Cl)[C@H]1CCNC1 |  |
| 161 | 98 | CC(C)C(=O)N(Cc1ccc(F)cc1Cl)[C@H]1CCNC1 |  |

| Structure (SMILES) | IC50 [1] [nM] | IC50 [2] [nM] | further results |
| --- | --- | --- | --- |
| CC(C)C(=O)N(Cc1ccc(F)cc1F)[C@H]1CCNC1 | > 400 | > 400 |  |
